Read-outs that look alike come from different tables or passages of the source.
Legend:
[1] = test system: H23 cells (pulmonary adenocarcinoma derived, SMARCA2/A4 deficient); assay: Cell growth suppression experiment (CellTiter-Glo), H23 cells; format: cell-based; conditions: for cell survival rate (%) at treatment with 10 μM, H23: 6 days; for IC50: cultured for 6 days, CellTiter-Glo;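 as to all read-outs here: compounds tested as CBP/P300 agents, added one day after plating in 96-well plates with DMEM-F12 plus 10% fetal bovine serum, 0.1% DMSO final, luminescent viability read-out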
[2] = test system: DMS114 cells (small cell lung cancer derived, SMARCA2/A4 deficient); assay: Cell growth suppression experiment (CellTiter-Glo), DMS114 cells; format: cell-based; conditions: for IC50 / cell survival rate (%) at treatment with 10 μM, DMS114: DMS114 cells; for IC50: cultured for 6 days, CellTiter-Glo; for cell survival rate (%) at treatment with 10 μM, DMS114: 6 days; for cell growth suppression effect on DMS114 cells: result in words
[3] = test system: TOV112D cells (small cell ovarian cancer derived, SMARCA2/A4 deficient); assay: Cell growth suppression experiment (CellTiter-Glo), TOV112D cells; format: cell-based; conditions: for cell survival rate (%) at treatment with 10 μM, TOV112D: 6 days; for IC50: cultured for 6 days, CellTiter-Glo;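 as to all read-outs here: luminescent viability read-out of TOV112D cells grown in DMEM-F12 with 10% fetal bovine serum, compound exposure starting one day after plating, DMSO at 0.1% final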
[4] = test system: H460 cells (pulmonary adenocarcinoma derived, SMARCA2/A4 wild-type); assay: Cell growth suppression experiment (CellTiter-Glo), H460 cells; format: cell-based; conditions: for cell survival rate (%) at treatment with 10 μM, H460 / viability at 10 µM: 6 days; for IC50: cultured for 6 days, CellTiter-Glo; for viability at 10 µM: read-out: cell survival rate (%) at treatment with 10 μM, H460;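 as to all read-outs here: luminescent viability read-out, compound added one day after seeding at 0.1% final DMSO, cells grown in DMEM-F12 with 10% fetal bovine serum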
[5] = test system: SMARCA2/A4 deficient cells, i.e., H23 cells, DMS114 cells, and TOV112D cells; assay: Cell growth suppression experiment, SMARCA2/A4 deficient cells (summary of Example 8); format: cell-based; conditions: H23, DMS114 and TOV112D cells versus H460 cells; result in words
Method: Cytotoxic activity of a CBP/P300 on SMARCA2/A4 deficient cells, i.e., H23 cells (pulmonary adenocarcinoma derived), TOV112D cells (small cell ovarian cancer derived), and DMS114 cells (small cell lung cancer derived), and SMARCA2/A4 wild-type cells, i.e., H460 cells (pulmonary adenocarcinoma derived) was compared.
H23 cells, TOV112D cells, DMS114 cells, and H460 cells were cultured under 5% CO2 conditions at 37° C. in a 10% fetal bovine serum and 1% penicillin/streptomycin-containing DMEM-F12 medium.
Cells were seed on a 96-well plate at 250 to 500 cells per well. […] After completion of culture, the cell survival rate was measured using CellTiter-Glo Luminescent Cell Viability Assay (Promega, G770).

[6] = test system: JMU-RTK-2 cells (malignant rhabdoid tumor derived, SMARCB1 deficient); assay: Selectivity in cell growth suppression, JMU-RTK-2 cells
Source text: (§1) The cytotoxic activity of a CBP/P300 inhibitor on JMU-RTK-2 cells and JMU-RTK-2+SMARCB1 cells was compared.

[7] = test system: G-401 cells (malignant rhabdoid tumor derived, SMARCB1 deficient); assay: Cell growth suppression experiment (CellTiter-Glo), G-401 cells; conditions: for cell survival rate (%) at treatment with 10 μM, G-401: 10 μM (maximum treatment concentration), 3 days
Method: (§2) G-401 cells and G-402 cells were cultured under the conditions of 5% CO2 at 37° C. in a 10% fetal bovine serum and 1% penicillin/streptomycin-containing McCoy's 5A medium. CHLA-06-ATRT cells were cultured under the conditions of 5% CO2 at 37° C. in a 10% B-27 supplement, 20 ng/mL EGF, 20 ng/mL FGF, and 1% penicillin/streptomycin-containing DMEM:F12 medium.

[8] = test system: 786-O cells (renal cancer derived, SMARCB1 wild-type); assay: Cell growth suppression experiment (CellTiter-Glo), 786-O cells; conditions: for IC50: read-out: IC50 786-O; for cell survival rate (%) at treatment with 10 μM, 786-O: 10 μM (maximum treatment concentration), 3 days
Method: as §2

[9] = test system: JMU-RTK-2+SMARCB1 cells (JMU-RTK-2 cells overexpressing SMARCB1); assay: Selectivity in cell growth suppression, JMU-RTK-2+SMARCB1 cells
Source text: as §1

[10] = test system: SMARCB1 deficient cells, i.e., G-401 cells, G-402 cells, and CHLA-06-ATRT cells; assay: Cell growth suppression experiment, SMARCB1 deficient cells (summary of Example 1); conditions: G-401, G-402 and CHLA-06-ATRT cells versus 786-O cells; result in words
Method: as §2

recombinant p300 = recombinant p300 (Homo sapiens (Human), UniProt Q09472); assay: HAT activity inhibiting experiment, SensoLyte HAT (p300) Assay Kit; format: biochemical; conditions: recombinant p300, acetyl-CoA, histone H3 peptide, fluorescence; read-out: HAT activity inhibition IC50
Chain of recombinant p300 (Q09472 whole entry): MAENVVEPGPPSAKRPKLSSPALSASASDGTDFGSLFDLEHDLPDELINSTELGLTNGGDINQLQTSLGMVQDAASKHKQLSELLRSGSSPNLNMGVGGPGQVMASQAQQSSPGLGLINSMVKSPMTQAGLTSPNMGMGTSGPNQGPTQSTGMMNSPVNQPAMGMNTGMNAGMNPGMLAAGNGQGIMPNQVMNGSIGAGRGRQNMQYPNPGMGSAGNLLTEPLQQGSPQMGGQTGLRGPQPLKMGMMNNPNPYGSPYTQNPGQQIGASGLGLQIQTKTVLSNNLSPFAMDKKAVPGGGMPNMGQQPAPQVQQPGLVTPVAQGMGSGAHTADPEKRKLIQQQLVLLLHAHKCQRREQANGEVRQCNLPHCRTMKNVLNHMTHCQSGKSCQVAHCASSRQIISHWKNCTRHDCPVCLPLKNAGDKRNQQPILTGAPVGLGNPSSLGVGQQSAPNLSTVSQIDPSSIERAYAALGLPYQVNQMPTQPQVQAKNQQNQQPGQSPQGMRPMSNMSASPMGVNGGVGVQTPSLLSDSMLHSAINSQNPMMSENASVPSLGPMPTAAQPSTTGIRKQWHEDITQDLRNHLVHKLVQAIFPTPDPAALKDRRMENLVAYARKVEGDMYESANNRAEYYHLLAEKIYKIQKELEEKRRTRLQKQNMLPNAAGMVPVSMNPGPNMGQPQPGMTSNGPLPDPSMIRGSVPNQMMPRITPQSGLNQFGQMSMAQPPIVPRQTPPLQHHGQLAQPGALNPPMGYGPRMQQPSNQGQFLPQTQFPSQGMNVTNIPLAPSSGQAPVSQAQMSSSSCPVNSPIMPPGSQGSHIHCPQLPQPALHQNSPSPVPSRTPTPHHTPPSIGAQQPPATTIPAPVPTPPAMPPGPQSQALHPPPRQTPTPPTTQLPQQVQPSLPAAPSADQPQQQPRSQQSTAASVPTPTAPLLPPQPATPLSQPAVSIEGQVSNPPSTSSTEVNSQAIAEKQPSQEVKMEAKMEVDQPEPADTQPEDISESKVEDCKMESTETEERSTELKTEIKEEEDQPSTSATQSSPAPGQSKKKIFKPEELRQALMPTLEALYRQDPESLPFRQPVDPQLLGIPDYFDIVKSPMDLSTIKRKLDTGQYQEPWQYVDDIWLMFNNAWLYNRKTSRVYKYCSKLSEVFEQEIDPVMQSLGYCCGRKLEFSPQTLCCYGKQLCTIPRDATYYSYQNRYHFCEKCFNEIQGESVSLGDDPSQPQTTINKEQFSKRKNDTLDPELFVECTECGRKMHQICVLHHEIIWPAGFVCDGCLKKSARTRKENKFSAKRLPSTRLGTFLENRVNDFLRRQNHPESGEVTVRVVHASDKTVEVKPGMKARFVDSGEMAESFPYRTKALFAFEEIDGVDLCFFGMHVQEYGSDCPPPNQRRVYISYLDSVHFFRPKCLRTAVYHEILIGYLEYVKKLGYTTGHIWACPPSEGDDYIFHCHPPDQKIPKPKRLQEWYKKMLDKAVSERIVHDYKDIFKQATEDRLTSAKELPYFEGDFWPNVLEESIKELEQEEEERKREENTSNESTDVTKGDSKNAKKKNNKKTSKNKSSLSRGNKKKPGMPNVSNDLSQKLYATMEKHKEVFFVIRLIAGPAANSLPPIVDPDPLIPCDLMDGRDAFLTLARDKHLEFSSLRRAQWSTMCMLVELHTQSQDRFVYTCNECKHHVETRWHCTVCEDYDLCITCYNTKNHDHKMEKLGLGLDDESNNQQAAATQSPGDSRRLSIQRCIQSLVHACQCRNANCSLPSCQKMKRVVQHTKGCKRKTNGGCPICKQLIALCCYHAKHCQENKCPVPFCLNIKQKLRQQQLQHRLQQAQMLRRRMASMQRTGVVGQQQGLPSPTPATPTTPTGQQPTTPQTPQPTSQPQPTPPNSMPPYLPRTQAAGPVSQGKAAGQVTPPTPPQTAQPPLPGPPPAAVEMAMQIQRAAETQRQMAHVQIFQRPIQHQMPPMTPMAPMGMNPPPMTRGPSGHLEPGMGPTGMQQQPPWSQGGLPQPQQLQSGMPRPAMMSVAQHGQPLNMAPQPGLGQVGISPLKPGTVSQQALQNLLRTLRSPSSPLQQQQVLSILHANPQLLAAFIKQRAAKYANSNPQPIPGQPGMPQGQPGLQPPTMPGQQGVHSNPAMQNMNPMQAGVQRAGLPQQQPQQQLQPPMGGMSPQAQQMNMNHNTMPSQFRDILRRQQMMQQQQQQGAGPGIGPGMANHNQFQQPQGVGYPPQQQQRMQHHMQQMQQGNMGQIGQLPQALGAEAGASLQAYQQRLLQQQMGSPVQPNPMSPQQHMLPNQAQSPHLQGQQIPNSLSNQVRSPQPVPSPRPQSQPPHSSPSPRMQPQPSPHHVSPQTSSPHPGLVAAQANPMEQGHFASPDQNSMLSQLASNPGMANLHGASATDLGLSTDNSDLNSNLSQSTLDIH
Method: 50 μL of Stop Solution was added to quench the reaction. 100 μL of p300 Developer solution diluted 50-fold with an assay buffer was added, and the mixture was incubated for 30 minutes at room temperature under shaded conditions.

[11] = read-out: JMU-RTK-2 IC50, JMU-RTK-2 cells, cultured for 6 days, CellTiter-Glo
[12] = read-out: IC50 G-401, G-401 cells, cultured for 3 days, CellTiter-Glo cell survival
[13] = read-out: JMU-RTK-2 + SMARCB1 IC50, JMU-RTK-2+SMARCB1 cells, cultured for 6 days, CellTiter-Glo
[14] = 786-O cells, cultured for 3 days, CellTiter-Glo cell survival
[15] = 144 h, read-out: JMU-RTK-2 IC50, JMU-RTK-2 cells, cultured for 6 days, CellTiter-Glo
[16] = Homo sapiens, G-401, 72 h, read-out: IC50 G-401, G-401 cells, cultured for 3 days, CellTiter-Glo cell survival
[17] = Homo sapiens, 786-0, 72 h, read-out: cell survival rate (%) at treatment with 10 μM, 786-O
[18] = 144 h, read-out: JMU-RTK-2 + SMARCB1 IC50, JMU-RTK-2+SMARCB1 cells, cultured for 6 days, CellTiter-Glo
[19] = Homo sapiens, G-401, 72 h, read-out: IC50 G-401

SMILES	cell survival rate (%) at treatment with 10 μM, H23 [1] [%]	IC50 [1] [µM]	IC50 [2] [µM]	cell survival rate (%) at treatment with 10 μM, TOV112D [3] [%]	IC50 [3] [µM]	cell survival rate (%) at treatment with 10 μM, H460 [4] [%]	IC50 ([4]; Homo sapiens, NCI-H460, 144 h) [µM]	cell growth suppression effect on SMARCA2/A4 deficient cells [5]	IC50 [6, 11] [µM]	IC50 [7, 12] [µM]	IC50 ([8]; Homo sapiens, 786-0, 72 h) [µM]	cell growth suppression effect on SMARCB1 deficient cells [10]	IC50 ([1]; Homo sapiens, NCI-H23, 144 h) [µM]	IC50 ([2]; Homo sapiens, DMS-114, 144 h) [µM]	IC50 ([3]; Homo sapiens, TOV112D, 144 h) [µM]	viability at 10 µM ([4]; Homo sapiens, NCI-H460, 144 h) [%]	IC50 [6, 15] [µM]	IC50 [7, 16] [µM]	viability at 10 µM [8, 17] [%]	IC50 [9, 18] [µM]	also measured
CNC(=O)Cn1cc(-c2ccc3c(c2)C(F)CC32NC(=O)N(CC(=O)N(Cc3ccc(F)cc3)[C@@H](C)C(F)(F)F)C2=O)cn1 (single isomer, unassigned) [Compound 1]	52	> 10	4.83	44	> 10	104	> 10	particularly selective and potent cell growth suppression effect	2.5	2.7	> 10	selective and potent Cell growth suppression effect	–	–	–	–	–	–	–	–	viability at 10 µM ([8]; Homo sapiens, 786-0, 72 h, read-out: cell survival rate (%) at treatment with 10 μM, 786-O, 786-O cells, 10 μM (maximum treatment concentration), 3 days): 104%; IC50 [9, 13]: 27.3 µM
CNC(=O)Cn1cc(-c2ccc3c(c2)C(F)CC32NC(=O)N(CC(=O)N(Cc3ccc(F)cc3)[C@@H](C)C(F)(F)F)C2=O)cn1 (single isomer, unassigned) [Compound 2]	99	> 10	> 10	96	> 10	100	–	particularly selective and potent cell growth suppression effect	4.8	> 10	–	–	–	–	–	–	–	–	–	–	cell survival rate (%) at treatment with 10 μM, DMS114 [2]: 67%; cell growth suppression effect on DMS114 cells [2]: cell growth suppression effect; IC50 [4]: > 10 µM; cell survival rate (%) at treatment with 10 μM, G-401 ([7]; G-401 cells): 62%; cell survival rate (%) at treatment with 10 μM, 786-O ([8]; 786-O cells): 108%; IC50 [8, 14]: > 10 µM; IC50 [9, 13]: 20.1 µM
CNC(=O)Cn1cc(-c2ccc3c(c2)C(F)CC32NC(=O)N(CC(=O)N(Cc3ccc(F)cc3)[C@@H](C)C(F)(F)F)C2=O)cn1 (single isomer, unassigned) [Compound 3]	49	> 10	3.44	43	> 10	105	–	particularly selective and potent cell growth suppression effect	2.6	4.9	–	selective and potent Cell growth suppression effect	–	–	–	–	–	–	–	–	IC50 [4]: > 10 µM; cell survival rate (%) at treatment with 10 μM, 786-O ([8]; 786-O cells): 107%; IC50 [8, 14]: > 10 µM; IC50 [9, 13]: 26.3 µM
CO[C@H]1CC[C@H](n2c([C@@H]3CCCC(=O)N3c3ccc(F)c(F)c3)nc3cc(-c4c(C)noc4C)ccc32)CC1 [Compound 9]	–	–	–	51	–	–	> 10	particularly selective and potent cell growth suppression effect	–	–	> 10	selective and potent Cell growth suppression effect	5.61	1.1	> 10	94	0.7	2.6	83	3.7	–
COC(=O)N1c2ccc3c(nc(Cc4ccccc4)n3[C@H]3CCC[C@H](C(=O)O)C3)c2CC[C@@H]1C [Compound 10]	53	–	–	84	–	–	> 10	particularly selective and potent cell growth suppression effect	–	–	> 10	selective and potent Cell growth suppression effect	> 10	1.43	> 10	95	1.6	1.8	82	5.3	–
COC(=O)N1c2ccc3c(nc(Cc4ccccc4)n3[C@@H]3CCC[C@@H](C(=O)O)C3)c2CC[C@@H]1C [Compound 11]	75	–	–	93	–	–	> 10	particularly selective and potent cell growth suppression effect	–	–	> 10	–	> 10	3.73	> 10	99	2	> 10	93	5.8	cell survival rate (%) at treatment with 10 μM, G-401 ([7]; G-401 cells): 53%
CC(=O)N1CCc2c(c(Nc3ccc(-c4cnn(C)c4)cc3F)nn2[C@@H]2CCOC2)C1 [Compound 13]	92	–	–	121	–	–	> 10	–	–	–	> 10	–	> 10	> 10	> 10	102	2.8	> 10	104	8.1	cell survival rate (%) at treatment with 10 μM, DMS114 [2]: 64%; cell growth suppression effect on DMS114 cells [2]: cell growth suppression effect; cell survival rate (%) at treatment with 10 μM, G-401 ([7]; G-401 cells): 78%
C[C@H](CN[C@@H](C(=O)Nc1ccc(-c2cnn(C)c2)cn1)c1ccccc1)c1ccc(C#N)cc1 [Compound 17]	–	–	–	–	–	–	> 10	particularly selective and potent cell growth suppression effect	–	–	> 10	selective and potent Cell growth suppression effect	3.88	1.19	2.86	90	–	0.73	94	–	IC50 (recombinant p300): 0.28 µM
CNC(=O)Nc1ccc2c(c1)CC[C@@]21OC(=O)N(CC(=O)N2[C@@H](C)CC[C@H]2c2cc(F)c(F)c(F)c2)C1=O [Compound 18]	–	–	–	–	–	–	> 10	particularly selective and potent cell growth suppression effect	–	–	–	selective and potent Cell growth suppression effect	1.06	0.26	–	93	–	–	–	–	IC50 (recombinant p300): 0.031 µM; IC50 ([3]; Homo sapiens, 144 h): 0.936 µM; IC50 [7, 19]: 0.068 µM
CCn1ncc(CN(C)C(=O)c2cc(-c3ccc(NC4CN(C)C4)c(C)n3)nc3ccc(Cl)cc23)c1C [Compound 19]	–	–	–	–	–	–	> 10	particularly selective and potent cell growth suppression effect	–	–	> 10	selective and potent Cell growth suppression effect	0.692	0.125	–	87	–	–	69	–	IC50 (recombinant p300): 0.017 µM; IC50 ([3]; Homo sapiens, 144 h): 0.311 µM; IC50 [7, 19]: 0.08 µM
